Laboratory results: US20250387404A1, “FORMULATIONS AND METHODS FOR TREATING EPIDERMOLYSIS BULLOSA SIMPLEX AND RELATED CONDITIONS” (RUTGERS, THE STATE UNIVERSITY OF NEW JERSEY, priority 2022, published 2025)
Entries after “also recorded” stand apart in the source; their conditions may differ. Like-named read-outs stand apart in the source and are kept apart here.

Legend:
K18 R90C mice [1] = test: Fas-induced liver injury; format: in vivo, mouse; conditions: for hepatocyte keratin filament organization: PP2 1 mg/kg ip daily 4d; for increase in serum alanine aminotransferase (ALT) level after Fas treatment: single 1× pretreatment (PKC412 25 mg/kg, PP2 1 mg/kg, Vem 1 mg/kg), Fas antibody 0.25 μg/g
Method: (§4) All mouse experiments were performed using a protocol approved by Rutgers University Institutional Animal Care and Use Committee. Previously described 4-6 weeks-old F22 male and female mice that express the human K18 R90C mutant (FVB/N background) were used. […] For immunofluorescence experiments, mouse livers were collected after CO2 euthanasia and embedded in optimum-cutting-temperature compound then stored (−80° C.). For Fas experiments, mice were treated by intraperitoneal administration of Fas antibody (0.15 μg/g body weight; BD Pharmingen). After 5 h, mice were sacrificed followed by collection of blood and liver. Livers were fixed with 10% formalin and analyzed by hematoxylin-eosin (H&E) staining or TUNEL assay. A hemorrhage score was calculated using QuPath (Quantitative Pathology & Bioimage Analysis) and ImageJ software. Apoptosis was estimated using TUNEL assay detection kit (ApopTag Peroxidase In Situ Apoptosis; Sigma Aldrich). Fluorescence images were acquired with the same exposure time and used to count the apoptotic nuclei. Serum alanine aminotransferase (ALT) levels were determined using the Liquid ALT Reagent Set (Pointe Scientific). For the acetaminophen (APAP) experiments, the liver histopathology score was determined using a 0-4 scoring system. Scoring was conducted by two scorers blinded to treatment conditions, and the average score was used.

K18 R90C mice [2] = test system: K18 R90C mice
Method: as §4

[3] = PP2 content in liver and serum by UPLC-UV; format: in vivo, mouse
Method: Mice were sacrificed and livers were harvested at the indicated times. […] The column was washed once with 1 mL 100% methanol and eluted with 1 mL 5% NH4OH in methanol. […] The evaporated sample was resuspended in […] injection solvent [80% (5% ammonium hydroxide in methanol)+20% (10 mM ammonium formate+0.1% formic acid)], and […] was injected for ultra-performance liquid chromatography (UPLC). […] The supernatant was transferred to new tubes then processed further for SPE and UPLC exactly as carried out for the liver tissue extracts.
A Waters ACQUITY UPLC system equipped with Empower software and H-Class PLUS (CH-A) Core was used. […] The column was eluted at flow rate of 0.5 ml/min with linear gradients of solvents A and B (A, 10 mM ammonium formate, 0.1% formic acid in water; B, 0.1% formic acid in methanol).

K18 and K8 [4] = test: K8/K18 phosphorylation by mass spectrometry and immunoblot; format: cell-based, human
Method: Cell and liver samples were solubilized using a Dounce homogenizer in 2% SDS-containing PBS supplemented with protease inhibitor (Thermo Fisher Scientific), then sonicated 80× (is pulse, intensity 70) (Fisher Scientific; Model: FB50). Lysates were pelleted (16,000 g×10 min/20° C.) and the supernatant was used for subsequent analysis. Equal amounts of protein were separated by SDS-polyacrylamide gel electrophoresis (PAGE) then transferred to polyvinylidene fluoride membranes (Bio-Rad) followed by immunoblotting. For immunoprecipitation, K18 R90C-transduced A549 cells were homogenized in PBS containing 1% Nonidet P-40 (NP40), protease inhibitors, and okadaic acid (Cayman Chemical; 1 μg/mL). […] For mass spectrometry, conjugated beads were suspended in PBS-buffered 8M urea to yield ˜6 g (in 60 μl urea-containing buffer). Samples were separated SDS-PAGE, followed by in-gel tryptic digestion then LC-MS/MS analysis. Peptides were identified by the Mass Spectrometry Facility at Rutgers University.

A549 cells = conditions: PP2 10 μM, A549 cells expressing K18 R90C
Method: (§1) A549 cells were cultured using Ham's F-12K medium (Thermo Fisher Scientific) supplemented with 10% fetal bovine serum (Sigma Aldrich) and 1% penicillin and 10,000 U/mL streptomycin (Life Technologies).

[5] = K18 R90C mice, PP2 1 mg/kg intraperitoneally daily for 4d, female and male
Method: as §4

[6] = test system: GFP-K18 R90C transduced A549 cells; test: IFN-γ/FasL-induced apoptosis in cultured cells; format: cell-based, human
Method: as §1

[7] = test system: GFP-K18 R90C lentivirus-transduced A549 cells; test: Keratin dots-to-filaments assay (high-throughput screen and validation); format: cell-based, human; conditions: 5 μM, 48 h
Method: The screening strategy was performed as described. In brief, human A549 lung adenocarcinoma cells (American Type Culture Collection) were seeded into six-well plates overnight and then transduced with K8 WT and either the GFP-tagged K18 WT or GFP-tagged K18 R90C lentivirus for 2d. A549 cells were selected for the screening assay because of their high transduction efficiency and readily visualized keratin filaments. The transduced cells were seeded into 384-well plates for 1d followed by addition of compounds from the Navigator Pathways (Center for Chemical Genomics, University of Michigan). After 48 h, cells were fixed counterstained with 4′,6-diamidino-2-phenylindole (DAPI; Invitrogen). Images were taken with the Image Xpress Micro XLS High Content Imaging System then analyzed using MetaXpress software (Molecular Devices). Compounds that decrease the number of keratin dots/cell and promote keratin filament formation were selected for secondary validation. 945 compounds from the Navigator Pathways library were screened. The library consists of several daughter sets that cover a range of pathways including Autophagy, Wnt, Epigenetics, Protein Kinases, Proteases, Redox, Cannabinoids, and Natural Products.

K14.R125G keratinocytes = test: Epithelial sheet assay (dispase assay); format: cell-based, human; conditions: 1 μM, high calcium medium, 24 h
Method: (§2) Prior to the assay, cells were washed twice with 1.2 mM Ca^2+ PBS and incubated for 30 min at 37° C. with Dispase II (Roche Diagnostics, 9 mg/ml in 1:2 HEPES buffer:keratinocytes medium, 2 mM Ca^2+). Free-floating cell sheets were transferred to a 15 ml Falcon tube containing 5 ml 1.2 mM Ca^2+ PBS and subjected to 25 rpm overhead rotation (WiseMix overhead rotator, Witeg Labortechnik, Germany) for 1 min at room temperature. Image acquisition was done using Nikon SMZ 1500 binocular and image processing by ImageJ.

K14.R125C keratinocytes [8] = test: Epithelial sheet assay (dispase assay); format: cell-based, human; conditions: 1 μM, high calcium medium, 24 h, vs vehicle-treated monolayers
Method: as §2

[9] = test system: RXXpS/pT AGC-kinase motif, P-K17 S44, P-DSP S165/S166, P-DSP S2849; test: Immunoblot with phospho-epitope specific antibodies; format: cell-based, human
Source text: (§3) Skin samples were obtained for diagnostic purposes. After written informed consent, primary keratinocytes were isolated from the remaining tissue. Immortalized human control (NHK, normal human keratinocytes) and EBS keratinocytes (K14.R125C, K14.R125G, K14.N123S, K14.Y415H, K5.G138E/L175F and K5.E477D) were generated (Has et al. (2018) The Position of Targeted Next-generation Sequencing in Epidermolysis Bullosa Diagnosis. Acta Dermato-Venereologica 98:437-40; He Y, Maier K, Leppert J, Hausser I, Schwieger-Briel A, Weibel L, et al. (2016) Monoallelic Mutations in the Translation Initiation Codon of KLHL24 Cause Skin Fragility. Am J Hum Genet 99:1395-404). Keratinocytes were grown in low calcium Gibco™ Keratinocyte-SFM Medium supplemented with L-glutamine, EGF and BPE (LCM, Thermo Fisher Scientific) and cultured at 37° C., 5% CO2 and 90% humidity. To induce cell-cell contacts, LCM was changed to high calcium medium (HCM, 1.2 mM CaCl2) and cells were incubated for 24 h.
To separate proteins under denaturing conditions, sodium dodecyl sulfate polyacrylamide gel electrophoresis (SDS-PAGE) was performed. Proteins were transferred to nitrocellulose membranes (VWR) using a semi-dry blotter (Armin Baack Labortechnik). Membranes were blocked using 3% (w/v) skim milk/TBS with Tween (TBST) or 3% (w/v) bovine serum albumin (BSA)/TBST and subsequently probed with the appropriate antibodies. Chemiluminescence was detected using ChemoCam Imager (Intas). Band intensity was quantified using ImageJ software.

K18 and K8 [10] = conditions: based on prior studies; cited from earlier work
[11] = healthy volunteers, single oral dose (50 mg) as microemulsion; cited from earlier work
[12] = test system: normal human keratinocytes (NHK); test: Electrochemical impedance spectroscopy on multielectrode arrays; format: cell-based; conditions: 24 h treatment; read-out: EC50 (impedance concentration response curve)
Source text: as §3, with “To induce cell-cell contacts, LCM was changed to high calcium medium (HCM, 1.2 mM CaCl2) and cells were incubated for 24 h.” left out
Impedimetric measurements on NHK and K14.R125C keratinocytes were performed as previously described. […] Impedance spectra (500 Hz-5 MHz) were automatically recorded every 30 min using the impedance measurement platform based on an Agilent 4294A high-precision impedance analyzer (Agilent Technologies) and the self-developed controlling software IMAT advanced. […] The cell signal (relative impedance) was determined with the self-developed analysis software IDAT v3.7.2.

K14.R125C keratinocytes [13] = test: Keratin aggregates by K5 immunofluorescence microscopy; format: cell-based, human; conditions: 0.8 μM PKC412, 24 h; DMSO-treated cells mean=56%
Method: Skin samples were obtained for diagnostic purposes. After written informed consent, primary keratinocytes were isolated from the remaining tissue. […] Keratinocytes were grown in low calcium Gibco™ Keratinocyte-SFM Medium supplemented with L-glutamine, EGF and BPE (LCM, Thermo Fisher Scientific) and cultured at 37° C., 5% CO2 and 90% humidity. To induce cell-cell contacts, LCM was changed to high calcium medium (HCM, 1.2 mM CaCl2) and cells were incubated for 24 h.

desmoplakin (DSP) = test: Desmoplakin localization by immunofluorescence microscopy; format: cell-based, human; conditions: 1.2 mM CaCl2, vs vehicle-treated cells
Method: Human keratinocytes grown on coverslips were fixed for 5 min in methanol (−20° C.) and 30 sec in acetone (−20° C.). Primary antibodies were diluted in 1% (w/v) BSA in TBS and incubated overnight at 4° C. in a humid chamber. The next day, coverslips were washed in TBS and incubated with the fluorophore-conjugated secondary antibody for 30 min at RT in the dark. DNA was stained with DAPI. Finally, coverslips were washed three times in TBS, rinsed briefly in aqua bidest and mounted with ProLong® Gold antifade reagent (Invitrogen). Images or Z-stacks were acquired with a confocal LSM 780 (Carl Zeiss) equipped with 40×/1.3 NA or 63×/1.4 NA oil immersion objectives and an AxioCam Mrm (Carl Zeiss). Image analysis and maximum intensity projections of Z-stacks was performed using Zen 2012 Blue software (Carl Zeiss). ImageJ was used for image processing.

[14] = female mice, PP2 1 mg/kg ip 4d, Fas antibody 0.15 μg/g 5 h
[15] = male mice, PP2 1 mg/kg ip 4d, Fas antibody 0.15 μg/g 5 h
[16] = K18 R90C-expressing A549 cells, mass spectrometry, PP2 vs DMSO
[17] = PKC412 25 mg/kg ip daily 4d, male and female, Fas challenge

**Q.** For CC(C)(C)n1nc(-c2ccc(Cl)cc2)c2c(N)ncnc21 [PP2, 1-tert-butyl-3-(4-chlorophenyl)-1H-pyrazolo[3,4-d]pyrimidin-4-amine], which “liver TUNEL-positive cells” value (K18 R90C mice [1]; PP2 1 mg/kg ip 4d, Fas challenge) is on record?
**A.** fewer TUNEL-positive cells

**Q.** And the “SRC phosphorylation at stimulatory phospho-site Y416 in liver” value (K18 R90C mice [1]; female livers)?
**A.** not female

**Q.** And the “hepatocyte keratin filament organization” value (K18 R90C mice [1]; female livers)?
**A.** not female

**Q.** And the ALT levels (K18 R90C mice [1]; [14])?
**A.** not female

**Q.** What about the parenchymal liver hemorrhage (K18 R90C mice [1]; [14]) of the same molecule?
**A.** not female

**Q.** What about the “SRC phosphorylation at stimulatory phospho-site Y416 in liver” value (K18 R90C mice [1]; male livers) of the same molecule?
**A.** decreased

**Q.** And the “hepatocyte keratin filament organization” value (K18 R90C mice [1]; male livers)?
**A.** normalized keratin filaments

**Q.** And the ALT levels (K18 R90C mice [1]; [15])?
**A.** improved

**Q.** What about the parenchymal liver hemorrhage (K18 R90C mice [1]; [15]) of the same molecule?
**A.** improved

**Q.** What about the “increase in serum alanine aminotransferase (ALT) level after Fas treatment” value (K18 R90C mice [1]; male mice) of the same molecule?
**A.** significantly reduced

**Q.** What about the tested necrosis markers (K18 R90C mice [2]; PP2 vs vehicle) of the same molecule?
**A.** no significant difference

**Q.** And the histologic protection (K18 R90C mice [2]; male compared with female PP2-treated mice)?
**A.** significant histologic protection

**Q.** And the PP2 in serum ([3]; 1 mg/kg, 1 h after administration)?
**A.** no detectable PP2

**Q.** And the PP2 in liver ([3]; after 4 h, male or female mice)?
**A.** no detectable PP2

**Q.** What about the “PP2 levels in male mouse liver compared to female mouse liver” value ([3]; as a function of time) of the same molecule?
**A.** significantly higher

**Q.** What about the PP2 in liver ([3]; male and female FVB/N mice, 1 mg/kg, 1 h after administration) of the same molecule?
**A.** detected

**Q.** And the “okadaic acid-induced hyperphosphorylation of K18/K8” value (K18 and K8 [4]; A549 cells, PP2 5 μM 48 h, okadaic acid 1 μg/mL)?
**A.** reversed

**Q.** What about the “decrease of global phosphorylation of K8” value (K18 and K8 [4]; [16]) of the same molecule?
**A.** 38%

**Q.** What about the “decrease of global phosphorylation of K18” value (K18 and K8 [4]; [16]) of the same molecule?
**A.** 43%

**Q.** What about the “K18 S34 and K8 S432 phosphorylation” value (K18 and K8 [4]; immunoblot, PP2 5 μM 48 h) of the same molecule?
**A.** significant decrease

**Q.** What about the tolerability in cells (A549 cells) of the same molecule?
**A.** not well tolerated

**Q.** What about the “body or liver weight” value [5] of the same molecule?
**A.** does not have an effect; also recorded: no significant effect

**Q.** What about the “induction of apoptosis under basal non-Fas condition (TUNEL)” value ([6]; 5 μM, no Fas challenge) of the same molecule?
**A.** does not induce apoptosis

**Q.** What about the “cleaved caspases 3 and 7” value ([6]; PP2 5 μM 48 h then IFN-γ and FasL) of the same molecule?
**A.** decreased presence

**Q.** What about the TUNEL-positive cells ([6]; PP2 5 μM 48 h then IFN-γ and FasL, without PP2 37%) of the same molecule?
**A.** 8%

**Q.** And the “percentage of cells with keratin mutant aggregates” value [7]?
**A.** significantly decreased

**Q.** With 4′-N-benzoylstaurosporine [PKC412] as the molecule, how does the “protection from Fas-induced liver injury, male versus female” value (K18 R90C mice [1]; PKC412 25 mg/kg ip daily 4d, Fas antibody 0.15 μg/g 5 h) read?
**A.** equally protects both sexes

**Q.** And the ALT levels (K18 R90C mice [1]; [17])?
**A.** significantly reduced

**Q.** What about the extent of hemorrhage (K18 R90C mice [1]; [17]) of the same molecule?
**A.** significantly reduced

**Q.** And the “increase in serum alanine aminotransferase (ALT) level after Fas treatment” value (K18 R90C mice [1]; male mice)?
**A.** significantly reduced

**Q.** What about the “fragility of mutant epithelial sheets” value (K14.R125G keratinocytes) of the same molecule?
**A.** rescued fragility

**Q.** What about the “epithelial monolayer integrity after rotation” value (K14.R125C keratinocytes [8]) of the same molecule?
**A.** remained fully intact

**Q.** What about the “phosphorylation at AGC-kinase motif RXXpS/pT” value ([9]; EBS K14.R125C cells vs vehicle-treated) of the same molecule?
**A.** significant reduction in phosphorylation

**Q.** What about the “K17 phosphorylation at P-S44” value ([9]; NHK and K14.R125C cells vs vehicle) of the same molecule?
**A.** significantly reduced

**Q.** What about the “DSP phosphorylation at S165 and S166” value ([9]; vs DMSO-treated cells) of the same molecule?
**A.** significantly reduced

**Q.** What about the “DSP phosphorylation at S2849” value ([9]; vs DMSO-treated cells) of the same molecule?
**A.** significantly reduced

**Q.** What about the “K18 S34 and K8 S432 phosphorylation” value (K18 and K8 [10]) of the same molecule?
**A.** no effect

**Q.** And the “tolerability, single oral dose” value [11]?
**A.** well tolerated

**Q.** What about the EC50 [12] of the same molecule?
**A.** 84 nM

**Q.** And the “keratin aggregate-containing cells (mean)” value (K14.R125C keratinocytes [13])?
**A.** 13%

**Q.** And the “DSP at sites of cell-cell contacts” value (desmoplakin (DSP))?
**A.** significant increase
